Results: doi:10.1101/2025.03.31.646301v1, “Discovery of Tankyrase scaffolding inhibitor specifically targeting the ARC4 peptide binding domain” (biorxiv, 2025)
Like-named read-outs stand apart in the source and are kept apart here.

Key:
TNKS2 ARC4 [1] = target: T1, TNKS2 ARC4 (Homo sapiens, UniProt Q9H2K2); design: DSF thermal shift of TNKS2 ARC4, stabilization over DMSO control; settings: binder
T1 construct: ankyrin repeat cluster 4 domain; FRET: 6xHis-mCerulean (CFP) fusion; DSF, NMR, crystal: MBP and His tag cleaved by TEV, residues 487-649 printed for crystal; E. coli BL21(DE3)
T1 sequence (Q9H2K2 487-649): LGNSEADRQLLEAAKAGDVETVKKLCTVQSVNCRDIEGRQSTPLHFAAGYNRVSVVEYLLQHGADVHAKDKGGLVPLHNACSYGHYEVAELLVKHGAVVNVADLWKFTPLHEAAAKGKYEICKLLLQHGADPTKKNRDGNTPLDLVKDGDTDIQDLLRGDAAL
Text: Given the notable stabilization of the pyrrolone-based compounds from the Commercials Diversity collection, we decided to focus on their common scaffold for compound optimization. Pyrrolone is indeed a versatile moiety that is largely employed for the design of compounds with a variety of biological effects.[55] The nine primary hits were acquired from commercial suppliers, they underwent quality control, additional DSF validation and determination of potency through FRET-based IC50 measurements (Table 1). All the tested compounds include a benzodioxane moiety (R[1]), a [compound left out] group with substitutions in the para position (R[2]), and an R[3] group with an aliphatic character and a tertiary amine. […] In addition, all molecules, except for 7, have IC50 values below 100 µM. Among the nine molecules, 1 performed the best in terms of stabilization of TNKS2 ARC4 and potency. […] In the same position, the presence of a hydrophobic methyl group (3, 4), other halogen substituents (5) and alkoxy groups (6–9) is also tolerated, even if not optimal. […] A SAR investigation was conducted with purchased and synthesized analogues of 1 through FRET-based potency measurements and DSF assay with TNKS2 ARC4 (Table 2, Table S2). All the compounds commercially acquired underwent quality control. […] Changes to the length of the aliphatic chain at R[3] greatly impacts both potency and protein stabilization. […] The diethylamino-based substituent at R[3] […] Compounds 25 and 26 further indicate that the presence of tertiary amine at R[3] is not necessary to achieve binding. […] 5 Figure S2. DSF assay results for validation of primary hits identified in the EU-OPENSCREEN Commercials Diversity Library. (A) and (B) show DSF assay validation measurements of TNKS2 ARC4 with primary hits from the Commercial Diversity Library. Compounds are tested at 100 μM. They are named after their EU-OPENSCREEN identity codes and the identities are available for consultation on ECBD. 1,2 (A) and (B) show results from two independent experiments. For each experiment, each compound was tested with a single measurement, while controls (TNKS2 ARC4 with 100 μM optimized peptide, TNKS2 ARC4 with 100 μM DMSO) are studied in at least four replicates and errors are shown. Moreover, stabilization over the control (TNKS2 ARC4 with DMSO) is indicated (ΔTm °C). […] It was not possible to measure the melting curve of TNKS2 ARC4 in presence of EOS21552, EOS54043, EOS54043.

TNKS2 ARC4 [2] = target: T1, TNKS2 ARC4; test: FRET displacement of YFP-REAGDGEE peptide from CFP-ARC; format: binding

Compound | ΔTm ± SD (°C) (TNKS2 ARC4 [1]) | IC50 (TNKS2 ARC4 [2]) [µM] | IC50 (TNKS2 ARC4 [2]; pH 7, 100 nM CFP-ARC, 200 nM YFP-peptide, TBM pocket) [µM]
COc1cccc(C2C(C(=O)c3ccc4c(c3)OCCO4)=C(O)C(=O)N2CCCNC(=N)N)c1 (stereo not drawn) [S4] | 1.10 ± 0.12 | 142 | 
CCN(CC)CCCN1C(=O)C(O)=C(C(=O)c2ccc(OC)c(OC)c2)C1c1cccc(O)c1 (stereo not drawn) [S11] | 0.08 ± 0.40 |  | 
CCN(CC)CCN1C(=O)C(O)=C(C(=O)c2ccc3c(c2)OCCO3)C1c1cccc(O)c1 (stereo not drawn) [compound 14, 14] | 1.40 ± 0.36 | 139 | 
O=C(C1=C(O)C(=O)N(Cc2ccccc2)C1c1ccc(O)cc1)c1ccc2c(c1)OCCO2 (stereo not drawn) [compound 26] | 0.76 ± 0.33 |  | 
CN(C)CCN1C(=O)C(O)=C(C(=O)c2ccc3c(c2)OCCO3)C1c1cccc(O)c1 (stereo not drawn) [compound 17] | 0.98 ± 0.32 |  | 
COCCCN1C(=O)C(O)=C(C(=O)c2ccc3c(c2)OCCO3)C1c1cccc(O)c1 (stereo not drawn) [compound 15, 15] | 0.78 ± 0.43 | 368 | 
CCN(CC)CCCN1C(=O)C(O)=C(C(=O)c2ccc3c(c2)OCCO3)C1c1cccc(O)c1 (stereo not drawn) [compound 13, 13] | 4.82 ± 0.49 | 24 | 
CCN(CC)CCCN1C(=O)C(O)=C(C(=O)c2ccc3c(c2)OCCO3)C1c1ccc(N(C)C)cc1 (stereo not drawn) [compound 19] | 4.14 ± 0.12 |  | 
CN(C)CCCN1C(=O)C(O)=C(C(=O)c2ccc3c(c2)OCCO3)C1c1cccc(O)c1 (stereo not drawn) [compound 16] | 2.96 ± 0.36 |  | 
CCN(CC)CCCN1C(=O)C(O)=C(C(=O)c2ccc3c(c2)OCCO3)C1c1ccncc1 (stereo not drawn) [compound 24] | 2.75 ± 0.44 |  | 
CCN(CC)CCCN1C(=O)C(O)=C(C(=O)c2ccc3c(c2)OCCO3)C1c1ccccc1 (stereo not drawn) [compound 21, 21] |  | 36 | 
CCN(CC)CCCN1C(=O)C(O)=C(C(=O)c2ccc3ccccc3c2)C1c1ccc(O)cc1 (stereo not drawn) [S6] | -0.06 ± 0.04 | > 1000 | 
CCN(CC)CCCCN1C(=O)C(O)=C(C(=O)c2ccc3c(c2)OCCO3)C1c1ccc(O)cc1 (stereo not drawn) [S12] | 1.97 ± 0.35 | 74 | 
CCN(CC)CCCN1C(=O)C(O)=C(C(=O)c2ccc3c(c2)OCCO3)C1c1ccc(C)cc1 (stereo not drawn) [compound 20] | 3.43 ± 0.66 |  | 
O=C(C1=C(O)C(=O)N(CCCN2CCOCC2)C1c1cccc(O)c1)c1ccc2c(c1)OCCO2 (stereo not drawn) [compound 18, 18] |  | 85 | 
O=C(C1=C(O)C(=O)N(CCN2CCOCC2)C1c1ccccc1)c1ccc2c(c1)OCCO2 (stereo not drawn) [compound 23, 23] |  |  | 411
O=C(C1=C(O)C(=O)N(CCc2ccccc2)C1c1ccc(O)cc1)c1ccc2c(c1)OCCO2 (stereo not drawn) [compound 25] | 1.80 ± 0.26 |  | 
CCN(CC)CCCN1C(=O)C(O)=C(C(=O)c2ccc3c(c2)OCCO3)C1c1ccc(F)cc1 (stereo not drawn) [compound 2, 2] | 2.38 ± 0.52 | 32 | 
CCN(CC)CCCN1C(=O)C(O)=C(C(=O)c2ccc(OC)c(OC)c2)C1c1ccccc1 (stereo not drawn) [S10] | -0.28 ± 0.35 |  | 
O=C(C1=C(O)C(=O)N(CCc2ccccc2)C1c1ccc(O)cc1)c1ccc2c(c1)OCCO2 (stereo not drawn) [compound 25, 25] |  | 56 | 
CCN(CC)CCCN1C(=O)C(O)=C(C(=O)c2ccc3c(c2)CC(C)O3)C1c1ccc(O)cc1 (stereo not drawn) [compound 10, 10] | 2.67 ± 0.46 | 31 | 

Compound | ΔTm ± SD (°C) (TNKS2 ARC4 [1]) | IC50 (TNKS2 ARC4 [2]) [µM] | IC50 (TNKS2 ARC4 [2]; pH 7, 100 nM CFP-ARC, 200 nM YFP-peptide, TBM pocket) [µM]
CCN(CC)CCCN1C(=O)C(O)=C(C(=O)c2ccc(OC)c(OC)c2)C1c1ccc(O)cc1 (stereo not drawn) [S7] | 0.04 ± 0.03 | > 1000 | 
CCN(CC)CCCN1C(=O)C(O)=C(C(=O)c2ccc3c(c2)OCCO3)C1c1cccc(OC)c1 (stereo not drawn) [compound 12, 12] | 4.03 ± 0.39 | 11 | 
O=C(C1=C(O)C(=O)N(CCN2CCOCC2)C1c1ccccc1)c1ccc2c(c1)OCCO2 (stereo not drawn) [compound 23] | 0.89 ± 0.33 |  | 
O=C(C1=C(O)C(=O)N(Cc2ccccc2)C1c1ccc(O)cc1)c1ccc2c(c1)OCCO2 (stereo not drawn) [compound 26, 26] |  | 30 | 
COc1cccc(C2C(C(=O)c3ccc4c(c3)OCCO4)=C(O)C(=O)N2CCCN2CCNCC2)c1 (stereo not drawn) [S1] | 0.69 ± 0.30 | 250 | 
CCN(CC)CCCN1C(=O)C(O)=C(C(=O)c2ccc3c(c2)OCCO3)C1c1ccc(N)cc1 (stereo not drawn) [S9] | 2.78 ± 0.18 | 17 | 
CN(C)CCCN1C(=O)C(O)=C(C(=O)c2ccc3c(c2)OCCO3)C1c1cccc(O)c1 (stereo not drawn) [compound 16, 16] |  | 31 | 
CCCCOc1ccc(C2C(C(=O)c3ccc4c(c3)OCCO4)=C(O)C(=O)N2CCCN2CCOCC2)cc1 (stereo not drawn) [compound 9, 9] | 1.40 ± 0.18 | 81 | 
O=C(C1=C(O)C(=O)N(CCCN2CCOCC2)C1c1cccc(O)c1)c1ccc2c(c1)OCCO2 (stereo not drawn) [compound 18] | 2.25 ± 0.48 |  | 
Cc1ccc(C2C(C(=O)c3ccc4c(c3)OCCO4)=C(O)C(=O)N2CCCN(C)C)cc1 (stereo not drawn) [compound 3, 3] | 2.34 ± 0.30 | 51 | 
CCN(CC)CCCN1C(=O)C(O)=C(C(=O)c2ccc3c(c2)OCCO3)C1c1ccc(N(C)C)cc1 (stereo not drawn) [compound 19, 19] |  | 10 | 
CN(C)CCN1C(=O)C(O)=C(C(=O)c2ccc3c(c2)OCCO3)C1c1cccc(O)c1 (stereo not drawn) [compound 17, 17] |  | 274 | 
CCN(CC)CCCN1C(=O)C(O)=C(C(=O)c2ccc3c(c2)OCCO3)C1c1ccccc1 (stereo not drawn) [compound 21] | 4.73 ± 0.29 |  | 
CN(C)CCCN1C(=O)C(O)=C(C(=O)c2ccc3c(c2)OCCO3)C1c1ccc(Br)cc1 (stereo not drawn) [compound 5, 5] | 1.49 ± 0.16 | 70 | 
CCN(CC)CCCN1C(=O)C(O)=C(C(=O)c2ccc3c(c2)OCCO3)C1c1ccc(C)cc1 (stereo not drawn) [compound 20, 20] |  | 78 | 
CCCCOc1ccc(C2C(C(=O)c3ccc4c(c3)OCCO4)=C(O)C(=O)N2CCCN(C)C)cc1 (stereo not drawn) [compound 8, 8] | 1.65 ± 0.24 | 69 | 
CCN(CC)CCCN1C(=O)C(O)=C(C(=O)c2ccc(OCc3ccc(C)cc3)cc2)C1c1ccc(O)cc1 (stereo not drawn) [compound 11, 11] | 0.07 ± 0.07 | 552 | 
O=C(C1=C(O)C(=O)N(Cc2ccncc2)C1c1ccccc1)c1ccc2c(c1)OCCO2 (stereo not drawn) [compound 22] | 0.48 ± 0.27 |  | 
CCN(CC)CCCN1C(=O)C(O)=C(C(=O)c2ccc3c(c2)OCCO3)C1c1ccncc1 (stereo not drawn) [compound 24, 24] |  | 56 | 
O=C(C1=C(O)C(=O)N(Cc2ccncc2)C1c1ccccc1)c1ccc2c(c1)OCCO2 (stereo not drawn) [compound 22, 22] |  | 325 | 
CCOc1ccc(C2C(C(=O)c3ccc4c(c3)OCCO4)=C(O)C(=O)N2CCCN2CCOCC2)cc1 (stereo not drawn) [compound 7, 7] | 1.42 ± 0.16 | 117 | 
